In ChEMBL document CHEMBL1154499 (Bioorg Med Chem Lett, 2008):

Assays:
[1] = target: T1, Transcriptional activator protein TraR (Agrobacterium tumefaciens, UniProt P33905); assay: Antagonist activity at Agrobacterium tumefaciens WCF47 TraR receptor assessed as inhibition of OOHL-induced response by beta-galctosidase reporter gene assay
T1 sequence (P33905 whole entry): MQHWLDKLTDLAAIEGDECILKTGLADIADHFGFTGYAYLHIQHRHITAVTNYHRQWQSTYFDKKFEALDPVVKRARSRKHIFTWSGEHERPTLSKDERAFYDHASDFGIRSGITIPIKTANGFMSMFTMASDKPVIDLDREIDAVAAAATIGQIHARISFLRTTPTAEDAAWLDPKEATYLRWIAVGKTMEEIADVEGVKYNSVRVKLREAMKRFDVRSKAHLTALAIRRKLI

[2] = target: T2, Transcriptional activator protein LuxR (Vibrio fischeri (strain ATCC 700601 / ES114), UniProt P35327); assay: (§1) Antagonist activity at Vibrio fischeri ES114 LuxR receptor assessed as inhibition of OHHL-induced response by luciferase reporter gene assay; type: functional, Aliivibrio fischeri
T2 sequence (P35327 whole entry): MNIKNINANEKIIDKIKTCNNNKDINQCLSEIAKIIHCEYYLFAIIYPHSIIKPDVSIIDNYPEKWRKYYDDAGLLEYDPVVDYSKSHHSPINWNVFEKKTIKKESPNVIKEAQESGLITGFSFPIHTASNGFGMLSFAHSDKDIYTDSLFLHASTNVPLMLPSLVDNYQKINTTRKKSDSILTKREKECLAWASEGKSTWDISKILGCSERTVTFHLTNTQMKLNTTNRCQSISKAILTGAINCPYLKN

[3] = (§2) Antagonist activity at Escherichia coli DH5alpha LasR receptor assessed as inhibition of OdDHL-induced response by beta-galctosidase reporter gene assay; type: functional
[4] = Agonist activity at Escherichia coli DH5alpha LasR receptor by beta-galctosidase reporter gene assay; type: functional
Escherichia coli [5] = assay: Agonist activity at Escherichia coli DH5alpha LasR receptor at 100 uM by beta-galctosidase reporter gene assay relative to OdDHL; type: functional
[6] = target: T3, Transcriptional activator protein LuxR (Vibrio fischeri (strain ATCC 700601 / ES114)) (UniProt P35327); assay: Agonist activity at Vibrio fischeri ES114 LuxR receptor at 100 uM by luciferase reporter gene assay relative to OHHL; type: functional; conditions: Aliivibrio fischeri
T3 sequence (whole entry): T2 sequence (P35327 whole entry)

[7] = target: T3, Transcriptional activator protein LuxR (Vibrio fischeri (strain ATCC 700601 / ES114)); assay: as §1; type: functional; conditions: Aliivibrio fischeri, concentration not given here
Escherichia coli [8] = assay: as §2; type: functional; conditions: dose or concentration not given here

| Structure (SMILES) | IC50 [1] [nM] | IC50 [2] [nM] | IC50 [3] [nM] | other results |
| --- | --- | --- | --- | --- |
| COc1ccc(OCC(=O)N[C@H]2CCOC2=O)cc1 | 4300 | – | – | – |
| O=C(CCc1ccc(Cl)cc1)N[C@H]1CCOC1=O | 3300 | 970 | 2200 | – |
| O=C(CCc1ccc(C(F)(F)F)cc1)N[C@H]1CCOC1=O | 210 | 2200 | – | EC50 [4]: > 10000 nM |
| O=C(CCc1ccc2c(c1)OCO2)N[C@H]1CCOC1=O | – | – | 3400 | – |
| O=C(Cc1ccc2ccccc2c1)N[C@H]1CCOC1=O | 4200 | 940 | – | – |
| CCCC(=O)CC(=O)N[C@H]1CCOC1=O | – | – | – | EC50 [4]: > 10000 nM |
| O=C(Cc1ccc(F)c(C(F)(F)F)c1)N[C@H]1CCOC1=O | – | 1000 | – | – |
| O=C(Cc1ccc(SC(F)(F)F)cc1)N[C@H]1CCOC1=O | 4700 | 1300 | – | Activity (Escherichia coli [5]): 65% |
| O=C(CCc1cccc(Br)c1)N[C@H]1CCOC1=O | – | 530 | 3300 | – |
| O=C(CCc1cccc(I)c1)N[C@H]1CCOC1=O | – | 390 | 1800 | – |
| COc1ccc(CCC(=O)N[C@H]2CCOC2=O)cc1 | – | – | 6800 | – |
| CCCCCCCCCC(=O)CC(=O)N[C@H]1CCOC1=O | – | – | – | EC50 [4]: 10 nM |
| O=C(Cc1cccc(I)c1)N[C@H]1CCOC1=O | – | – | 4630 | – |
| O=C(Cc1cc(C(F)(F)F)cc(C(F)(F)F)c1)N[C@H]1CCOC1=O | – | – | – | Activity [6]: 70%; EC50 [4]: 6300 nM |
| O=C(COc1ccc(F)cc1)N[C@H]1CCOC1=O | 2700 | – | – | – |
| O=C(Cc1cccc([N+](=O)[O-])c1)N[C@H]1CCOC1=O | – | – | 610 | – |
| CSc1ccc(CC(=O)N[C@H]2CCOC2=O)cc1 | 8400 | 2100 | – | – |
| CSc1ccc(CCC(=O)N[C@H]2CCOC2=O)cc1 | 1100 | 1700 | – | – |
| Cc1ccc(CCC(=O)N[C@H]2CCOC2=O)cc1 | – | 2200 | 4300 | – |
| Cc1cccc(CC(=O)N[C@H]2CCOC2=O)c1 | – | 2000 | – | inhibition [7]: 91% |
| O=C(COc1ccc([N+](=O)[O-])cc1)N[C@H]1CCOC1=O | 290 | – | – | – |
| O=C(CCc1cccc([N+](=O)[O-])c1)N[C@H]1CCOC1=O | – | 880 | 3400 | – |
| O=C(Cc1ccc(Cl)c(Cl)c1)N[C@H]1CCOC1=O | 2400 | – | – | – |

| Structure (SMILES) | IC50 [1] [nM] | IC50 [2] [nM] | IC50 [3] [nM] | other results |
| --- | --- | --- | --- | --- |
| O=C(Cc1ccc(I)cc1)N[C@H]1CCOC1=O | 1250 | – | 1720 | – |
| O=C(COc1ccc(OC(F)(F)F)cc1)N[C@H]1CCOC1=O | – | – | – | Activity (Escherichia coli [5]): 30%; EC50 [4]: 6300 nM |
| Cc1cccc(OCC(=O)N[C@H]2CCOC2=O)c1 | 1100 | – | 7800 | – |
| N#Cc1cccc(CC(=O)N[C@H]2CCOC2=O)c1 | – | – | – | Activity [6]: 75% |
| O=C(Cc1ccc([N+](=O)[O-])cc1)N[C@H]1CCOC1=O | 2250 | 960 | – | – |
| O=C(COc1ccc(Cl)cc1)N[C@H]1CCOC1=O | 620 | – | 4700 | – |
| O=C(CCc1ccc(Br)cc1)N[C@H]1CCOC1=O | – | – | 340 | – |
| COc1cccc(CC(=O)N[C@H]2CCOC2=O)c1 | – | 2500 | – | inhibition [7]: 85% |
| O=C(COc1ccc(C(F)(F)F)cc1)N[C@H]1CCOC1=O | 1600 | – | – | – |
| O=C(Cc1cccc(C(F)(F)F)c1)N[C@H]1CCOC1=O | – | 1400 | – | – |
| CSc1cccc(CC(=O)N[C@H]2CCOC2=O)c1 | – | 1500 | – | – |
| O=C(CCc1ccc([N+](=O)[O-])cc1)N[C@H]1CCOC1=O | 1600 | 990 | 3000 | inhibition (Escherichia coli [8]): 67% |
| O=C(Cc1cccc2ccccc12)N[C@H]1CCOC1=O | – | 1300 | – | – |
| O=C(CCc1cccc(C(F)(F)F)c1)N[C@H]1CCOC1=O | – | 500 | – | – |
| O=C(COc1ccc(I)cc1)N[C@H]1CCOC1=O | 440 | 1900 | 2000 | inhibition (Escherichia coli [8]): 63% |
| CCCCCC(=O)CC(=O)N[C@H]1CCOC1=O | – | – | – | EC50 [4]: > 10000 nM |
| Cc1ccc(OCC(=O)N[C@H]2CCOC2=O)cc1 | 1800 | – | – | – |
| O=C(COc1cccc([N+](=O)[O-])c1)N[C@H]1CCOC1=O | – | 2400 | – | – |
| O=C(CCc1ccc(I)cc1)N[C@H]1CCOC1=O | 2100 | 630 | – | – |
| O=C(COc1ccc(Br)cc1)N[C@H]1CCOC1=O | 510 | 3000 | 2100 | inhibition (Escherichia coli [8]): 67% |
| O=C(CCc1ccc(F)cc1)N[C@H]1CCOC1=O | – | 2700 | 12000 | – |
| Cc1cccc(CCC(=O)N[C@H]2CCOC2=O)c1 | – | 2100 | 8900 | – |
